The test system of the first data set is human bladder cancer cell line NTUB1. Description: Trial (A): cytotoxic effect, IC50 by median-effect analysis. Type of data set: cell-based. The note with it: NTUB1 cells, with reference to TABLE 2. From the text:
For the sake of proving therapeutic effects of the derivatives of 18β-glycyrrhetinic acid of the present invention, including 10, 11, 13-17 and 21-25, in treating of cancer, human bladder cancer cell line NTUB1, human prostate cancer cell line PC3 cataloged as CRL-1435 (reference to J. Formosan Med. Assoc. 1992; 91:608-13), and immortalized normal human urothelial cells SV-HUC1 cataloged as CRL-9520 are purchased from American Type Culture Collection (ATCC; Rockville, USA) and maintained in a culturing medium respectively till at a preferable density to carry out a serial of trials (comprising trial A to G) for evaluating cytotoxicities of the derivatives of 18β-glycyrrhetinic acid against cancer cells, and mechanisms thereof.
In the present invention, the NTUB1 and the PC3 is but not limit to be maintained in RPMI 1640 medium supplemented 10% fetal bovine serum (FBS), 100 unit/mL penicillin-G, 100 μg/mL streptomycin, and 2 mM L-glutamine, yet the SV-HUC1 is maintained in F12 medium supplemented with 10% fetal bovine serum (FBS), 100 unit/mL penicillin-G, 100 μg/mL streptomycin, and 2 mM L-glutamine, culturing at 37° C. in a humidified atmosphere containing 5% CO2 till at a density of 70% per well, followed by repeatedly suspending cells in each well with an ethylene diamine tetra-acetic acid buffer (EDTA buffer; Merck) and counting cell numbers.
In the present invention, the IC50 values of each group are presented as mean±standard deviation (SD).
In the case of `C=C(C)[C@@H]1CC[C@]2(C)[C@H](C(=O)C=C3[C@@H]4C[C@@](C)(C(=O)OCc5ccccc5)CC[C@]4(C)CC[C@]32C)[C@@]1(C)CCC(=O)O` [Compound 9], the “cytotoxic effect against cancer cell” value is listed as “significantly suppress the growth of cancer cells with a lower concentrate”.

The same data set, now with this note: NTUB1 cells; mean ± SD.
The compound `CC1(C)[C@@H](O)CC[C@]2(C)[C@H]3C(=O)C=C4[C@@H]5C[C@@](C)(C(=O)O)CC[C@]5(C)CC[C@@]4(C)[C@]3(C)CC[C@@H]12` [Compound 1, 18β-glycyrrhetinic acid] yielded an IC50 of 27.3 ± 5.17 µM. On the same count and under the same terms, with `CC1(C(=O)O)CCC2(C)CCC3(C)C(=CC(=O)C4C5(C)CCC(=O)C(C)(C)C5CCC43C)C2C1` (centres unmarked) [Compound 2] the figure was 18.6 ± 1.64 µM.

In turn, `COC(=O)C1(C)CCC2(C)CCC3(C)C(=CC(=O)C4C5(C)CCC(=O)C(C)(C)C5CCC43C)C2C1` (centres unmarked) [Compound 3] returned a 50% inhibitory concentration (IC50) of 56.5 ± 14.3 µM.

Take `CC1(C(=O)OCc2ccccc2)CCC2(C)CCC3(C)C(=CC(=O)C4C5(C)CCC(=O)C(C)(C)C5CCC43C)C2C1` (centres unmarked) [Compound 4]: the IC50 is 20.2 ± 5.1 µM.

The compound `CC1(C(=O)O)CCC2(C)CCC3(C)C(=CC(=O)C4C5(C)CCC(=O)OC(C)(C)C5CCC43C)C2C1` (centres unmarked) [Compound 5] showed an IC50 of 73.5 ± 35.1 µM.

Take `COC(=O)C1(C)CCC2(C)CCC3(C)C(=CC(=O)C4C5(C)CCC(=O)OC(C)(C)C5CCC43C)C2C1` (centres unmarked) [Compound 6]: the IC50 was 24.3 ± 3.98 µM. Compound `CC1(C(=O)OCc2ccccc2)CCC2(C)CCC3(C)C(=CC(=O)C4C5(C)CCC(=O)OC(C)(C)C5CCC43C)C2C1` (centres unmarked) [Compound 7] showed an IC50 of 57.6 ± 8.8 µM. Same read-out and setting: for `C=C(C)[C@@H]1CC[C@]2(C)[C@H](C(=O)C=C3[C@@H]4C[C@@](C)(C(=O)OC)CC[C@]4(C)CC[C@]32C)[C@@]1(C)CCC(=O)O` [Compound 8] the value was 20.7 ± 4.97 µM. Consider `C=C(C)[C@@H]1CC[C@]2(C)[C@H](C(=O)C=C3[C@@H]4C[C@@](C)(C(=O)OCc5ccccc5)CC[C@]4(C)CC[C@]32C)[C@@]1(C)CCC(=O)O` [Compound 9], for which the 50% inhibitory concentration (IC50) was found to be 2.34 ± 0.28 µM. Still for that read-out and setting: with `C=C(C)C1CCC2(C)C(C(=O)C=C3C4CC(C)(C(=O)OC)CCC4(C)CCC32C)C1(C)CCC(=O)OC(C)C` (stereo not drawn) [Compound 10, 3,4-seco-11-oxo-18β-olean-4(23),12-dien-3,30-dioic acid 3-isopropyl 30-methyl, ester] the figure was 25.3 ± 2.28 µM; with `C=C(C)[C@@H]1CC[C@]2(C)[C@H](C(=O)C=C3[C@@H]4C[C@@](C)(C(=O)OC)CC[C@]4(C)CC[C@]32C)[C@@]1(C)CCC(=O)NC(C)C` [Compound 11, 3-isopropyl carbamoyl-11-oxo-18β-3,4-seco-olean-4(23),12-dien 30-methyl ester], 31.4 ± 0.55 µM; with `C=C(C)C1CCC2(C)C(C(=O)C=C3C4CC(C)(C(=O)OCc5ccccc5)CCC4(C)CCC32C)C1(C)CCC(=O)OCC` (stereo not drawn) [Compound 13, 3,4-seco-11-oxo-18β-olean-4(23),12-dien-3,30-dioic acid 3-ethyl,30-benzyl ester], 27.8 ± 6.48 µM. With `C=C(C)C1CCC2(C)C(C(=O)C=C3C4CC(C)(C(=O)OCc5ccccc5)CCC4(C)CCC32C)C1(C)CCC(=O)OC(C)C` (stereo not drawn) [Compound 14, 3,4-seco-11-oxo-18β-olean-4(23),12-dien-3,30. dioic acid 3-isopropyl-30-benzyl ester], the concentration for half-maximal inhibition (IC50) worked out at 18.2 ± 1.58 µM. Same read-out and setting: with `C=C(C)[C@@H]1CC[C@]2(C)[C@H](C(=O)C=C3[C@@H]4C[C@@](C)(C(=O)OCc5ccccc5)CC[C@]4(C)CC[C@]32C)[C@@]1(C)CCC(=O)NCC` [Compound 15, 3-ethyl carbamoyl-11-oxo-18β-3,4-seco-olean-4(23),12-dien-30-benzyl ester] the figure was 42.7 ± 11.2 µM; with `C=C(C)[C@@H]1CC[C@]2(C)[C@H](C(=O)C=C3[C@@H]4C[C@@](C)(C(=O)OCc5ccccc5)CC[C@]4(C)CC[C@]32C)[C@@]1(C)CCC(=O)NCCC` [Compound 16, 3-propylcarbamoyl-11-oxo-18β-3,4-seco-olean-4(23),12-dien 30-benzyl ester], 49.4 ± 11.5 µM; with `C=C(C)[C@@H]1CC[C@]2(C)[C@H](C(=O)C=C3[C@@H]4C[C@@](C)(C(=O)OCc5ccccc5)CC[C@]4(C)CC[C@]32C)[C@@]1(C)CCC(=O)NC(C)C` [Compound 17, 3-isopropylcarbamoyl-11-oxo-18β-3,4-seco-olean-4(23), 12-dien 30-benzyl ester], 30.1 ± 2.41 µM.

Source of the values: patent US8686178B2, “Derivative of 18β-glycyrrhetinic acid apt to suppress cancer cells” (Kaohsiung Medical University, priority 2011, dated 2014).
